# Measurements taken from patent US5994402A, “Anti-inflammatory and anti-pyretic method” (priority 1997, dated 1999).
# Legend:
# [1] = system: cerebral ischemia-reperfusion injury; conditions: literature; cited from earlier work
# [2] = system: antigen-induced arthritis; assay: Antigen-induced arthritis (AIA); type: in vivo, Lewis rats; conditions: DEM 6 mmole/kg ip 1 h prior to antigen; 3+ without DEM
# Experimental: We examined the effect of intracellular thiol depletion in antigen-induced arthritis (AIA) with the administration of diethylmaleate (DEM) which is known to deplete glutathione. AIA was induced by sensitizing Lewis rats with 2 subcutaneous injections of methylated bovine serum albumin (1 mg/ml), then administering an intra-articular injection of mBSA.
# lung GSH = assay: Lung glutathione / non-protein thiol assay (DTNB); type: in vivo, male Sprague Dawley rats; conditions: for Lung GSH (t = 4 hrs): LPS +, mean ± SEM
# Experimental: (§1) Male Sprague Dawley rats weighing 250-275 g were obtained from Charles River Laboratories (Constante, Quebec). All animal studies were performed in accordance with guidelines set forth by the Toronto Hospital Animal Care Committee and the Canadian Council on Animal Care. Animals were housed in standard wire bottom cages, fed standard rat chow and water ad libitum and were allowed to acclimatize before use. Prior to experimentation, animals were fasted overnight and anesthetized with intraperitoneal sodium pentobarbital (50 mg/kg). A tracheostomy was performed and 0.5 ml of saline containing […] of lipopolysaccharide was instilled followed by 20 mechanically ventilated breaths using a rodent ventilator. Sham animals received 0.5 ml of saline alone. Animals were maintained at 37° C. with the use of warming blankets until recovery from anaesthesia.
# (§2) For examples 11 to 17, systemic GSH depletion in animals was accomplished by administering various doses of DEM or phorone by intraperitoneal injection following an overnight fast
# (§3) Quantitation of total lung and endothelial non-protein sulfhydryls (NPSH) was assessed using a DTNB based assay as described by Jocelyn. Lung tissue was thawed and weighed, and approximately 0.25 gm was homogenized in 2 ml of 5% SSA. The homogenate was sonicated for 30 seconds and centrifuged for 10 minutes at 10 000 g. The resultant acid thiol extract was assayed for NPSH by quantitating the reduction of DTNB through its conversion to 5-thio-2-nitrobenzoic acid (TNB) at 412 nm using a spectrophotometer. Sample values were then calculated from a standard curve generated using known amounts of GSH and are expressed as GSH equivalents per gram of lung tissue.
# Quantitation of lung non-protein sulfhydryls (NPSH) was assessed using a DTNB based assay as described by Jocelyn ^17. Lung tissue was thawed and weighed, and approximately 0.25 gm was homogenized in 2 ml of 5% SSA. The homogenate was sonicated for 30 seconds and centrifuged for 10 minutes at 10 000 g. The resultant acid thiol extract was assayed for NPSH by quantitating the is reduction of DTNB through its conversion to 5-thio-2-nitrobenzoic acid (TNB) at 412 nm using a spectrophotometer. Sample values were then calculated from a standard curve generated using known amounts of GSH and are expressed as GSH equivalents per gram of lung tissue.
# [3] = system: lung permeability after intratracheal LPS; assay: LPS-induced lung injury: lung permeability index (transcapillary 125I-albumin flux); type: in vivo, male Sprague Dawley rats; conditions: for Lung PI (t = 4 hrs): LPS +, mean ± SEM
# Experimental: as §1, §2
# At the end of the experimental protocol, rats were ventilated, heparin (100 U) was injected into the right ventricle, and 1 ml of blood was withdrawn by cardiac puncture. Following exsanguination, lungs were perfused blood-free by cannulating the pulmonary artery and infusing 10 ml of a low-potassium dextran solution containing 0.5 mg/L of PGE1. The left ventricle, left atria and mitral valve were opened widely to allow free drainage of effluent. The right lung was immediately frozen in liquid nitrogen for assay of non-protein thiols and ICAM-1 and TNF-a mRNA expression, myeloperoxidase activity, as described below. The left lung was used to calculate a permeability index (PI) as follows: [formula] Thioglycollate-induced Peritonitis
# [4] = system: kidney transplant recipients; assay: Kidney transplant survival; type: in vivo, black 6 mouse donor to C3H mouse; conditions: DEM 6 mmol/kg to donor and recipient; some mice
# Source text: A kidney from a black 6 mouse was transplanted into a C3H mouse in a sample of ten test mice and ten control mice. This is a major mismatch. In the test group, donors were given a single injection of DEM (6mmol/kg) immediately prior to the harvest of the kidney. Recipient mice received a single dose prior to insertion of the kidney. No other agents were used. In the control group, donors and recipients were not given an injection of DEM.
# RHEC = assay: Cytotoxicity to RHEC (LDH, trypan blue, monolayer integrity); type: cell-based, rat; conditions: for supernatant lactate dehydrogenase activity: DEM, mean ± SEM
# Source text: To determine whether the reduction in ICAM-1 expression was a direct effect of DEM, we attempted to recapitulate the effect in vitro using rat heart endothelial cells (RHEC) activated by either LPS or TNF-a.
# (§4) ICAM-1 is expressed on a number of cells present in the lung including endothelial cells, macrophages, neutrophils and alveolar epithelial cells {3224}. Since DEM served to reduced PMN sequestration In the lung, we hypothesized that an effect on endothelial cell ICAM-1 expression might be responsible. To test this possibility, we modeled the system in vitro using RHEC activated by either LPS or TNF-a. […] To determine whether the effect of GSH depletion on ICAM-1 expression was species specific, this parameter was similarly evaluated in HUVEC.
# Endothelial cells were isolated from the hearts of 5-day old rats according to the method of Kasten ^22 and allowed to grow to confluence. For experiments 11 to 17, human umbilical vein endothelial cells (HUVEC) were isolated as previously described. The endothelial cells were harvested using trypsin-EDTA treatment and seeded into 96 well, flat bottomed microtitre plates in minimal essential medium with 20% fetal calf serum. When the monolayers had reached confluence (approximately 4 days) cells were pretreated with diethylmaleate for 30 minutes followed by activation with either LPS or TNF-a. After 6 hours, supernatants were collected for measurement of lactate dehydrogenase (LDH) activity. Cells were washed twice with RPMI/5% fetal calf serum and incubated with mouse anti-rat ICAM-1 mAb for 1 hour, washed, and then incubated with peroxidase-conjugated goat anti-mouse IgG for 1 hour. Cells were washed again and color development initiated by the addition of the substrate, o-phenyidiamine hydrochloride. After 18 minutes, the reaction was stopped with 3 M sulfuric acid and the optical density at 492 nm determined using a microtitre plate reader. Data are expressed as the change in absorption from baseline. Quantitation of supernatant LDH activity as a measure of cytotoxicity was determined using spectrophotometric methods as previously described ^23.
# [5] = system: intracellular GSH levels in RHEC; assay: Intracellular GSH in RHEC; type: cell-based, rat; conditions: DEM 250 mM (so in the source)
# Source text: as §4, §3
# [6] = system: skin vascular permeability; assay: LPS dermal inflammation: skin permeability index; type: in vivo, Swiss Webster mice; conditions: for PI (mean ± SEM): 24 h
# Experimental: Swiss Webster mice were injected intradermally with saline or LPS (30 μg) with or without ip DEM or vehicle. Injection sites were harvested after 24 hours and evaluated for change in vascular permeability, using I^125 -labelled albumin and for levels of ICAM-1 mRNA (Table III).
# [7] = phorone 250 mg/kg ip 1 h prior to LPS
smiles,measurement,setting,value
"CCCCS(=N)(=O)CCC(N)C(=O)O (stereo not shown) [BSO, buthionine sulfoximine]",mortality following cerebral ischemia-reperfusion injury,[1],reduced mortality
"CCOC(=O)/C=C\C(=O)OCC [DEM, diethylmaleate]",quantitative histopathology score,[2],0
same,Lung GSH (t = 4 hrs),lung GSH; DEM injected at 0 h,278 ± 18
same,Lung GSH (t = 4 hrs),lung GSH; DEM injected at +2 h,361 ± 16
same,Lung GSH (t = 4 hrs),lung GSH; DEM injected at -1 h,185 ± 48
same,Lung GSH (t = 4 hrs),lung GSH; DEM injected at -3 h,591 ± 118
same,Lung PI (t = 4 hrs),[3]; DEM injected at -1 h,0.06 ± 0.02
same,Lung PI (t = 4 hrs),[3]; DEM injected at -3 h,0.09 ± 0.02
same,survival of recipients,[4],40 to 50 days
same,cell viability (trypan blue exclusion),RHEC; RHEC,did not affect cell viability
same,integrity of the cell monolayer,RHEC; RHEC,nor alter the integrity of the cell monolayer
same,supernatant lactate dehydrogenase levels,RHEC; RHEC,unaffected
same,supernatant lactate dehydrogenase activity,RHEC; RHEC treatment: LPS (1 mg/ml),33.0 ± 4.0 U/L
same,supernatant lactate dehydrogenase activity,RHEC; RHEC treatment: TNF-a (100 ng/ml),33.5 ± 2.5 U/L
same,supernatant lactate dehydrogenase activity,RHEC; RHEC treatment: control,32.5 ± 3.5 U/L
same,reduction in intracellular GSH levels,[5],≈ 75%
same,intracellular GSH levels,"[5]; No DEM: 6.74±0.08, p<0.01",1.66±0.1 nmoles/106 cells
same,"skin permeability index, DEM alone",[6]; DEM alone,no effect
same,PI (mean ± SEM),[6]; LPS id + DEM 3 mmol/kg ip,4.03 ± 0.43
same,PI (mean ± SEM),"[6]; LPS id + DEM 6 mmol/kg ip, p < 0.001 vs LPS",0.84 ± 0.28
"CC(C)=CC(=O)C=C(C)C [Phorone, diisopropylidene acetone]",reduction in lung GSH levels,lung GSH; [7],comparable reduction in lung GSH levels
same,LPS-induced increase in lung permeability,[3]; [7],almost complete prevention of the increase in lung permeability
